The source made the active and inactive calls.
Columns and labels:
cells [1] = type: functional, cell-based; conditions: HEK-CNG
Galanin receptor type 3 = biological target: T1, Galanin receptor type 3 (Homo sapiens, UniProt O60755); experiment: Fluorescence-based cell-based primary high throughput dose response assay to identify antagonists of the Galanin Receptor 3 (GalR3).; type: functional
T1 sequence (O60755 whole entry): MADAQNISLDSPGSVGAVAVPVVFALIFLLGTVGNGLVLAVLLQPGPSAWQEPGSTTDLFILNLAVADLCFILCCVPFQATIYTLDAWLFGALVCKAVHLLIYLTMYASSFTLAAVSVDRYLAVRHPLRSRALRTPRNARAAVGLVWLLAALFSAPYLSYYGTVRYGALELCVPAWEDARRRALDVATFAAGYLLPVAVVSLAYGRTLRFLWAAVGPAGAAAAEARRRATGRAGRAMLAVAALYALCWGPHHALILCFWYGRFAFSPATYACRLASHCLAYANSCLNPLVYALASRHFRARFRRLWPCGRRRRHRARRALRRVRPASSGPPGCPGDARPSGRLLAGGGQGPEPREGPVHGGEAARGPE

[2] = biological target: Luciferin 4-monooxygenase (Photinus pyralis, UniProt P08659); experiment: inhibition of purified Photinus pyralis luciferase – biochemical, luminescence, dose response (AID 1891)
Chain of Luciferin 4-monooxygenase (P08659 whole entry): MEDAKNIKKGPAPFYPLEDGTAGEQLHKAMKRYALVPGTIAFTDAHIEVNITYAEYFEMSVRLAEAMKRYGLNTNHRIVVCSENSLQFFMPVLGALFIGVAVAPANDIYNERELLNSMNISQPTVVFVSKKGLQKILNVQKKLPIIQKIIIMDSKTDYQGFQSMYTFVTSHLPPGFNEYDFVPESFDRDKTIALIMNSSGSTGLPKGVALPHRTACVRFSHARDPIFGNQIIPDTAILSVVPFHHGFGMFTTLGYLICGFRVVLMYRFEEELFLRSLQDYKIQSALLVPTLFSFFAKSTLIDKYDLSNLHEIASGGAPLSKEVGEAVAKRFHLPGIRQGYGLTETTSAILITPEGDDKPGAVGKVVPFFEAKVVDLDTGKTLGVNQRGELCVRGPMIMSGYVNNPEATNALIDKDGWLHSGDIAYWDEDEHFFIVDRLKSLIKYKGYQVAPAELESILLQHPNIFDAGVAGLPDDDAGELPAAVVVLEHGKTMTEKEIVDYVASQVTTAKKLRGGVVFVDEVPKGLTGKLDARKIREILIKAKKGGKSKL

[3] = Luminescence Cell-Based Dose Confirmation HTS to Identify Inhibitors of Platelet Dense Granule Release. [Related pubchem assays: 1663 (Primary HTS), 1678 (Summary of Project)]; type: functional
[4] = Luminescence Cell-Based Dose Confirmation to Identify Activators of 5'UTR Stem-Loop Driven Alpha-Synuclein mRNA Translation in H4 Neuroglioblastoma Cells. [Related pubchem assays: 1829 (Project Summary), 1814 (Primary HTS)]; type: functional
[5] = Luminescence Cell-Based Dose Response HTS to Identify Activators of Luciferase Translation or Activity in H4 […] Cells. [Related pubchem assays: 1829 (Project Summary), 1814 (Primary HTS)]; type: functional
[6] = Luminescence Cell-Based Dose Response to Identify Activators of Luciferase Translation or Activity in H4-C Neuroglioblastoma Cells. [Related pubchem assays: 1829 (Project Summary), 1814 (Primary HTS)]; type: functional
[7] = Luminescence Cell-Based Dose Response to Identify Activators of 5'UTR Stem-Loop Driven Prion Protein mRNA Translation in H4-C Neuroglioblastoma Cells. [Related pubchem assays: 1829 (Project Summary), 1814 (Primary HTS)]; type: functional
[8] = viability loss in HEK293 cells – cell-based, plate reader, cherry-picked samples, cytotoxicity control, dose response (AID 743446); type: functional
[9] = biological target: T2, Replicative DNA helicase DnaB (Mycobacterium tuberculosis, UniProt P9WMR3); experiment: DnaB intein splicing inhibitors, dose response, biochemical, cell-free fluorescence (AID 449749); type: functional
T2 sequence (P9WMR3 whole entry): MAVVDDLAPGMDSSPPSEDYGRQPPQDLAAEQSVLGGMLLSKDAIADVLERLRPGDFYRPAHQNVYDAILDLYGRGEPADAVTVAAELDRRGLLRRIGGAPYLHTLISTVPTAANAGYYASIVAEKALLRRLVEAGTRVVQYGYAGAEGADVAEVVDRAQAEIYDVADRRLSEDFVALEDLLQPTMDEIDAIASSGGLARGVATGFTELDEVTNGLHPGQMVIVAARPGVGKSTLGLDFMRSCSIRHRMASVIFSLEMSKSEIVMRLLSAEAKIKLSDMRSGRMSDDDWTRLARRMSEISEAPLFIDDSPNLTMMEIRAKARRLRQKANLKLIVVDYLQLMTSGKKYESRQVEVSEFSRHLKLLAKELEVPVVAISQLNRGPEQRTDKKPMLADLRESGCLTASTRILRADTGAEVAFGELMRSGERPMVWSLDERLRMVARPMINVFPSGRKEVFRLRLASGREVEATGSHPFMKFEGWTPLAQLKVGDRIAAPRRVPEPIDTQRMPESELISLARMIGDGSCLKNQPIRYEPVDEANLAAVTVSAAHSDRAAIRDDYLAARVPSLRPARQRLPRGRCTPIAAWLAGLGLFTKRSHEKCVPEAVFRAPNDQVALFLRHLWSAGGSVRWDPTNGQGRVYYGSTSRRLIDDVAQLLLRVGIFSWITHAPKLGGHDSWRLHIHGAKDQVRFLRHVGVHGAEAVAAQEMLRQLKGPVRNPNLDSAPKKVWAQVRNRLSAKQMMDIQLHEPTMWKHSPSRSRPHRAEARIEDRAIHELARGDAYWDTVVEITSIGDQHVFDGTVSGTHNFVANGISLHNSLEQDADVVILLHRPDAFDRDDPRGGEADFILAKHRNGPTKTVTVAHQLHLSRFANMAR

Protein RecA = biological target: T3, Protein RecA (Mycobacterium tuberculosis, UniProt P9WHJ3); experiment: Fluorescence Cell-Free Homogeneous Dose Retest to Identify Inhibitors of RecA-Intein Splicing Activity. [Related pubchem assays (depositor defined):AID2097, AID2223, AID489010, AID492950]; type: functional
T3 sequence (P9WHJ3 whole entry): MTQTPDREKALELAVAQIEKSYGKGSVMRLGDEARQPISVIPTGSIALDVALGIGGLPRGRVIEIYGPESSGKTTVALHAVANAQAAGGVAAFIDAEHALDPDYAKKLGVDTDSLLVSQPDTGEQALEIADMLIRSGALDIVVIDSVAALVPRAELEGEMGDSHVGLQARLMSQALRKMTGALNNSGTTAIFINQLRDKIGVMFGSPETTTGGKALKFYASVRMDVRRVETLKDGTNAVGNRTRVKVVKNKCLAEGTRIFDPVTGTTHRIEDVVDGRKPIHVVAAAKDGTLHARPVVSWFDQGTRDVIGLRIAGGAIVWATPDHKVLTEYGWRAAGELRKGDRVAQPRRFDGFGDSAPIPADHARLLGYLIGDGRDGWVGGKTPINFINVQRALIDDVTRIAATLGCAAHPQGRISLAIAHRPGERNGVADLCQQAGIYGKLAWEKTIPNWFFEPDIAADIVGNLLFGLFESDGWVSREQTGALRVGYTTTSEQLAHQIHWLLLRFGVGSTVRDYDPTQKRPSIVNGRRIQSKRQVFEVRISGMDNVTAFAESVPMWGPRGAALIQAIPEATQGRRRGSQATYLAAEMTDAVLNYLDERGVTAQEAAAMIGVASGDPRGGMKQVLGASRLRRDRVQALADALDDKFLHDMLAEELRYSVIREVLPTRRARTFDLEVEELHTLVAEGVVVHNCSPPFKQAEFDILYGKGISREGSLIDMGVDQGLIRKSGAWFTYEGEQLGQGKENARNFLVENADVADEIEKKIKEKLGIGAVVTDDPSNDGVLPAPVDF

[10] = THP-1 cell cytotoxicity, dose response, cytotoxicity control for non-replicating M. tuberculosis project (AID 489025); type: functional
[11] = NIH3T3 cell viability loss – ATP luminescence, mouse fibroblasts, counter-screen, dose response (AID 2010); type: functional, cell-based;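 further: cells exposed to compound for about 90 hours before reading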
[12] = NIH-3T3 fibroblast cytotoxicity, dose response, cytotoxicity control, cell-based, fluorescence, Alamar Blue, secondary assay (AID 2327); type: functional;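 further: NIH-3T3 mouse fibroblasts cultured with fluconazole at 8 µg/mL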
[13] = fluconazole-exposed Candida albicans growth modulators – fluorescence, retest, confirmation (AID 2467); type: functional, cell-based
[14] = toxicity toward HepG2 liver cells – cell-based, plate reader, cherry-pick, antagonist series, cytotoxicity control, dose response (AID 743416); type: functional
[15] = biological target: T4, Heat shock factor protein 1 (Mus musculus, UniProt P38532); experiment: enhancement of HSF1-driven luciferase signal – cell-based, NIH3T3, luminescence, dose retest, confirmation (AID 435004); type: functional;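 further: stress induced by proteasome inhibitor MG132 added 30 min after compound; luciferase reporter driven by HSF1 response element in NIH3T3 cells; actives raise luminescence as potentiators of the MG132 stress response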
T4 sequence (P38532 whole entry): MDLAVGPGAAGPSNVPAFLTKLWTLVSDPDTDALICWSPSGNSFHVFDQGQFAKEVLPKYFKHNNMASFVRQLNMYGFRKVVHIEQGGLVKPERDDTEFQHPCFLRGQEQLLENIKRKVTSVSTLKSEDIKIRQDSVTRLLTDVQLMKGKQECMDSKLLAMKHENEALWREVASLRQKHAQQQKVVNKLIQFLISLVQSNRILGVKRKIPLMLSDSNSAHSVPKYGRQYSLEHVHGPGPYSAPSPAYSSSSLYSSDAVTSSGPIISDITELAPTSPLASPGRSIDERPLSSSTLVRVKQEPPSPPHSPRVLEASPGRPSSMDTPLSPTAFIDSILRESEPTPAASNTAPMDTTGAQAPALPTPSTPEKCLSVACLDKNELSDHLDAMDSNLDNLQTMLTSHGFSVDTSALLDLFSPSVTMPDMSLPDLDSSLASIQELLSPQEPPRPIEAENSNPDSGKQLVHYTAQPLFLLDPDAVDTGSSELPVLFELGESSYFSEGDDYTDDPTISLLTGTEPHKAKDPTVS

[16] = Trypanosoma cruzi growth suppression in host cells – NIH3T3 host cells, beta-gal luminescence, confirmation (AID 2044); type: functional, cell-based;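 further: intracellular parasites grown in NIH/3T3 mouse fibroblasts as host cells; luminescent beta-galactosidase reporter signal from transgenic T. cruzi replicating inside host cells; inhibitors lower the luminescence signal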
cells [17] = type: functional
Paired box protein Pax-8 = Paired box protein Pax-8 (Homo sapiens, UniProt Q06710); experiment: PAX8 transcriptional activity inhibition in RMG-I – RMG-I cells, luciferase, cherry-pick, dose response (AID 687027); type: functional, cell-based;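 further: luciferase reporter driven by Pax8 target thyroperoxidase promoter measured by SteadyGlo luminescence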
Chain of Paired box protein Pax-8 (Q06710 whole entry): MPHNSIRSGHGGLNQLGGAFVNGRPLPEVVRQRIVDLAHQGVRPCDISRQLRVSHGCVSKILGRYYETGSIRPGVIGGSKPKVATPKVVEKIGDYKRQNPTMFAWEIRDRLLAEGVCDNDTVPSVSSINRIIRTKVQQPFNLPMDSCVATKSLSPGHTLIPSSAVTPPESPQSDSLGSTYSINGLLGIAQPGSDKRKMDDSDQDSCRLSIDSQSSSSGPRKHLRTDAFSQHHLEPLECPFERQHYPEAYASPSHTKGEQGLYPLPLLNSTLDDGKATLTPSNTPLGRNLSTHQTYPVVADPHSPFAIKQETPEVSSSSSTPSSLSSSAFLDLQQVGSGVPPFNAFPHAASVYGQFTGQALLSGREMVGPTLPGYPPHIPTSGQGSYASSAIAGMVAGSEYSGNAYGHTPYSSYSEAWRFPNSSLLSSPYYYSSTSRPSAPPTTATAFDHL

[18] = blockade of melanocortin 4 receptor signaling – cell-based, plate reader, cherry pick, counter-screen for LGR2 antagonist project, dose response (AID 743444); type: functional;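 further: transfected HEK 293 cells stimulated with alpha-MSH peptide; potency of inhibitors of the alpha-MSH evoked signal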
[19] = blockers of bursicon-stimulated LGR2 cAMP reporter – cell-based, HEK293, CRE-luciferase reporter, cherry pick, set 2, dose response (AID 743343); type: functional;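 further: transfected cells were stimulated with diluted bursicon conditioned medium after compound addition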
HEK293 = experiment: EBV LMP1 TES2 canonical NF-kB signalling blockers – cell-based, HEK293, luciferase, cherry-pick, dose response (AID 588343); type: functional; conditions: Homo sapiens
[20] = A549 cell cytotoxicity, dose response, cytotoxicity control, plate reader, cherry-pick, antagonist series (AID 743412); type: functional, cell-based
Major prion protein = Major prion protein (Homo sapiens, UniProt P04156); type: functional, cell-based
[21] = reduced cellular PGC1a acetyl-lysine signal – cell-based, cherry-picked samples, dose response (AID 720514); type: functional;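 further: potency may reflect raised or lowered acetylation signal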

COc1ccc(C2CC(=O)Nc3sc(=N)c4c(N)c(C#N)c(N)nc4c32)cc1OC (configuration not stated)
EC50 (cells [1]): > 29.9 µM (inactive) | IC50 (Galanin receptor type 3): 2.28 µM (active) | EC50 [2]: > 112 µM (not active) | EC50 [3]: 0.706 µM (active)

COCCn1c(C)cc(C(=O)CSc2nc(O)c3ccccc3n2)c1C
EC50 [4]: 0.371 µM (active) | EC50 [5]: < 0.1 µM (active) | EC50 [6]: 0.326 µM (active) | EC50 [7]: 0.269 µM (active)

Cc1noc2ncnc(Sc3ccc(Br)cc3)c12
AC50 [8]: > 52 µM (inactive) | AC50 [9]: 4.02 µM (active) | EC50 (Protein RecA): 16.2 µM (active) | CC50 [10]: > 40 µM (active) | EC50 [11]: > 60 µM (inconclusive) | EC50 [12]: 7.6 µM (inconclusive) | EC50 [13]: > 38 µM (not active) | AC50 [14]: 25.4 µM (active) | EC50 [15]: 6.64 µM (active) | EC50 [16]: 1.96 µM (active) | IC50 (cells [17]): 11.6 µM (active)

COc1ccc(-c2csc3ncnc(Sc4nnnn4C)c23)cc1
AC50 (Paired box protein Pax-8): 4.92 µM (active) | AC50 [18]: 20.8 µM (active) | AC50 [8]: 19.8 µM (active) | AC50 [19]: 17.8 µM (active) | AC50 (HEK293): 8.04 µM (active) | AC50 [20]: 26.8 µM (active)

CC(Sc1ccc2ccccc2n1)C(=O)O (configuration not stated)
IC50 (Major prion protein): 1.88 µM (active)

O=C1C2C3CCC(C3)C2C(=O)N1c1ccc(OS(=O)(=O)c2ccccc2)cc1 (configuration not stated)
EC50 [4]: 0.366 µM (active) | EC50 [5]: < 0.1 µM (inconclusive) | EC50 [6]: 0.36 µM (active) | EC50 [7]: 0.408 µM (active)

Cc1cc2c(c(/C=C/C(=O)c3ccccc3)c1)OC1(C=C2)Oc2ccccc2C(=O)N1C (configuration not stated)
AC50 [21]: 2.26 µM (active) | EC50 [15]: 3.56 µM (active)

From ChEMBL document CHEMBL1201862, “PubChem BioAssay data set” (2004)
